Assay [1] addresses I105F mutant of TCCYP51 (Trypanosoma cruzi, UniProt Q7Z1V1, I105F). The format is binding.
Assay [2] deals with TC infected cardiomyoblasts. Kind of assay: inhibition of TC multiplication within cardiomyoblasts. The format is cell-based, Trypanosoma cruzi. The conditions noted are these: 30 µM.
The subject of assay [3] is Trypanosoma cruzi. Kind of assay: TC cellular growth inhibition. The format is cell-based.
In assay [4] the test system is Trypanosoma brucei. Briefly: TB cellular growth inhibition. It counts as cell-based. The conditions noted are these: read-out: EC50 / 50% cell growth inhibition for TB, form not stated.
Assay [5] addresses T1, TCCYP51 (Trypanosoma cruzi, UniProt Q7Z1V1). The format is binding. Particulars: for spectral response: TCCYP51.
Assay [6] concerns the target TBCYP51 (Trypanosoma brucei brucei, UniProt Q385E8). It counts as binding.
Assay [7] has as its target T1, TCCYP51. Particulars: cited from earlier work.
The target of assay [8] is T1, TCCYP51. The conditions noted are these: cited from earlier work. The source holds these as a separate data set.
Assay [9] deals with Trypanosoma cruzi. Particulars: read-out: published EC50 values in TC cells; cited from earlier work.
In assay [10] the target is T1, TCCYP51. The format is biochemical. Particulars: T. cruzi CYP51, initial rate.

Like-named read-outs stand apart in the source and are kept apart here.

On to “32-Methylene cyclopropyl-lanost-7-enol [MCP]”, for which the high spin form in assay [1] came to 87%. The spectral response result in assay [1], in [5] and in assay [6] (TBCYP51) was “type 1 spectral responses” each time. In addition, the “parasite cells cleared from TC infected cardiomyoblasts” value in assay [2] is “more than 90%”. Also, the “number of intracellular parasites” value in assay [2] (72 h, trypanosomes pre-incubated with compound) is “dramatic decrease in the number of intracellular parasites”. The EC50 in assay [3] (read-out: 50% cell growth inhibition of TC, TC, form not stated) was 3000 nM; in [4], above 50000 nM. Besides, the “high spin content (low to high spin transition in the heme iron)” value in assay [5] (TCCYP51, maximal upon titration) is given as 41%; in [6] (TBCYP51, maximal upon titration), 85%.

In the case of `CC(C)CCC[C@@H](C)[C@H]1CC[C@@]2(CN)C3=CCC4C(C)(C)[C@@H](O)CC[C@]4(C)[C@H]3CC[C@]12C` (stereo partly drawn) [AL7, 4,4-dimethyl-14α-aminomethyl-cholest-7-en-3β-ol], the “I/E2 for the initial rate of TCCYP51 catalysis” value in assay [7] was 11. Moreover, the spectral response entry in assay [8] was “type 2 spectral responses”.

In the case of `CC(C)CCC[C@@H](C)[C@H]1CC[C@@]2(CN)C3=C(CC[C@]12C)[C@@]1(C)CC[C@H](O)C(C)(C)C1CC3` (stereo partly drawn) [AL8, 4,4-dimethyl-14α-aminomethyl-cholest-8-en-3β-ol], the “I/E2 for the initial rate of TCCYP51 catalysis” value in assay [7] is reported as 14. Further, the spectral response entry in assay [8] is “type 2 spectral responses”.

Regarding `O=C(NC(Cn1ccnc1)c1ccccc1)c1ccc(-c2ccc(Cl)cc2)cc1` (stereo not shown) [SDZ285604], the EC50 in [3] (read-out: EC50 (50% cellular growth inhibition), amastigotes (intracellular form) of TC) was below 1000 nM; in [3] (read-out: EC50 (50% cellular growth inhibition), trypomastigotes (extracellular form) of TC) it was below 1000 nM.

Regarding `O=C(Cn1ccnc1[N+](=O)[O-])NCc1ccccc1` [benznidazole], the EC50 in assay [9] was 25000 to 50000 nM. Also, the “I/E2 (5 min), molar ratio inhibitor/enzyme which causes a twofold decrease in the activity” value in assay [10] stood at 42. Besides, in assay [5], the spectral response entry is “does not induce spectral changes”.
